According to patent US9598387B2 (Southern Research Institute, priority 2012, dated 2017):

Columns and labels:
[1] = target: human D3 dopamine receptor (Homo sapiens (Human), UniProt P35462); assay: Radioligand binding (125I-IABN competition), D3; settings: for Ki: 125I-IABN competition, HEK cell membranes expressing human D3; for D2/D3 (D3 selectivity ratio, D2 Ki/D3 Ki): calculated D2 Ki/D3 Ki
Description: (§1) The affinities of the target compounds were determined using radioligand binding experiments. […] Competition curves were modeled for a single site. Data from competition dose-response curves were analyzed using Tablecurve program (Jandel). IC50 values were converted to equilibrium dissociation constants (Ki values) using the Cheng and Prusoff correction.

[2] = target: human D2-long dopamine receptor (Homo sapiens (Human), UniProt P14416); assay: Radioligand binding (125I-IABN competition), D2; settings: HEK cell membranes expressing human D2-long
Description: as §1

Sequence of human D3 dopamine receptor (P35462 whole entry): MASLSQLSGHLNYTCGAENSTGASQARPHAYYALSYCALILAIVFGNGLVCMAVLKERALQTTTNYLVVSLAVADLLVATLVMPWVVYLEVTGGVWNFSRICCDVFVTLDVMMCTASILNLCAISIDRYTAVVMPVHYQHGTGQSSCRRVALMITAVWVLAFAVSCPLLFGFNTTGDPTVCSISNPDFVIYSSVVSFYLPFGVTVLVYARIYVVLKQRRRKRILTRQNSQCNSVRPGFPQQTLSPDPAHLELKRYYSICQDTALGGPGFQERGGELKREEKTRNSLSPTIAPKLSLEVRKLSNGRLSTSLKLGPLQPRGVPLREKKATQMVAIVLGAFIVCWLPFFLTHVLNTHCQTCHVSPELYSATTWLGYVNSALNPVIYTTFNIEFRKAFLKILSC
Sequence of human D2-long dopamine receptor (P14416 whole entry): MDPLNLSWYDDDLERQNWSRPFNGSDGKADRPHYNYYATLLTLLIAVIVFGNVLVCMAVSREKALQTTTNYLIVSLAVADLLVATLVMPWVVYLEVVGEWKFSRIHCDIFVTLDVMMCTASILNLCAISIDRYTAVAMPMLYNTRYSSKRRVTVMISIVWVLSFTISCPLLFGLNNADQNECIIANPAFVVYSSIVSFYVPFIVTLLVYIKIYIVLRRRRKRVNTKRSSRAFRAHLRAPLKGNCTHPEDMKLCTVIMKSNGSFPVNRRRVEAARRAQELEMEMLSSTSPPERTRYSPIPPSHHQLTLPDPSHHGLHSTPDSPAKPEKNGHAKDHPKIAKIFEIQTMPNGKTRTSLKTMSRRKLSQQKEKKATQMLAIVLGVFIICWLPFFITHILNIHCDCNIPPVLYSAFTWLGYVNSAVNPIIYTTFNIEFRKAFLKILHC

Row | Ki [1] [nM] | D2/D3 (D3 selectivity ratio, D2 Ki/D3 Ki) [1] | Ki [2] [nM] | Compound
1 | 25.2 ± 5.5 | 34 | 861 ± 137 | COc1ccccc1N1CCN(C(=O)NCCCCN2CCN(c3cc(C(F)(F)F)nc(C(C)(C)C)n3)CC2)CC1 [Compound 19, N-(4-(4-(2-(tert-Butyl)-6-(trifluoromethyl)pyrimidin-4-yl)piperazin-1-yl)butyl)-4-(2-methoxyphenyl)piperazine-1-carboxamide]
2 | 44.2 ± 8.2 | 11 | 507 ± 16.6 | CC(C)(C)c1nc(N2CCN(CCCCNC(=O)N3CCCN(c4ccccc4)CC3)CC2)cc(C(F)(F)F)n1 [Compound 81, N-(4-(4-(2-(tert-Butyl)-6-(trifluoromethyl)pyrimidin-4-yl)piperazin-1-yl)butyl)-4-phenyl-1,4-diazepane-1-carboxamide]
3 | 16 | 52 | 843 ± 95 | CC(C)(C)c1nc(N2CCN(CCCCNC(=O)N3CCC(C#N)(c4ccccc4)CC3)CC2)cc(C(F)(F)F)n1 [Compound 17, N-(4-(4-(2-(tert-Butyl)-6-(trifluoromethyl)pyrimidin-4-yl)piperazin-1-yl)butyl)-4-cyano-4-phenylpiperidine-1-carboxamide]
4 | 29 ± 2.4 | 34 | 998 ± 252 | CC(C)(C)c1nc(N2CCN(CCCCNC(=O)N3CCN(C(=O)c4ccccc4)CC3)CC2)cc(C(F)(F)F)n1 [Compound 37, 4-Benzoyl-N-(4-(4-(2-(tert-butyl)-6-(trifluoromethyl)pyrimidin-4-yl)piperazin-1-yl)butyl)piperazine-1-carboxamide]
5 | 118 ± 20.1 | 7 | 863 ± 135 | CC(C)(C)c1nc(N2CCN(CCCCNC(=O)N3CCN(C4CC4)CC3c3ccccc3)CC2)cc(C(F)(F)F)n1 (centres unmarked) [Compound 80, N-(4-(4-(2-(tert-Butyl)-6-(trifluoromethyl)pyrimidin-4-yl)piperazin-1-yl)butyl)-4-cyclopropyl-2-phenylpiperazine-1-carboxamide]
6 | 49.3 ± 11.2 | 22 | 1110 ± 104 | CC(C)(C)c1nc(N2CCN(CCCCNC(=O)N3CCN(c4cccc(-c5ccccc5)c4)CC3)CC2)cc(C(F)(F)F)n1 [Compound 44, 4-([1,1′-Biphenyl]-3-yl)-N-(4-(4-(2-(tert-butyl)-6-(trifluoromethyl)pyrimidin-4-yl)piperazin-1-yl)butyl)piperazine-1-carboxamide]
7 | 3.5 ± 0.7 | 173 | 605 ± 62 | CC(C)(C)c1nc(N2CCN(CCCCNC(=O)N3CC(c4ccncc4)C3)CC2)cc(C(F)(F)F)n1 [Compound 38, N-(4-(4-(2-(tert-Butyl)-6-(trifluoromethyl)pyrimidin-4-yl)piperazin-1-yl)butyl)-3-(pyridin-4-yl)azetidine-1-carboxamide]
8 | 2.6 ± 0.3 | 38 | 97.4 ± 21.7 | CC(C)(C)c1nc(N2CCN(CCCCNC(=O)N3CCN(c4ccncc4)CC3)CC2)cc(C(F)(F)F)n1 [Compound 31, N-(4-(4-(2-(tert-Butyl)-6-(trifluoromethyl)pyrimidin-4-yl)piperazin-1-yl)butyl)-4-(pyridin-4-yl)piperazine-1-carboxamide]
9 | 73.8 ± 17.5 | 8 | 626 ± 143 | CC(C)(C)c1nc(N2CCN(CCCCNC(=O)N3CCN(C4CC4)CC3Cc3ccccc3)CC2)cc(C(F)(F)F)n1 (centres unmarked) [Compound 67, 2-Benzyl-N-(4-(4-(2-(tert-butyl)-6-(trifluoromethyl)pyrimidin-4-yl)piperazin-1-yl)butyl)-4-cyclopropylpiperazine-1-carboxamide]
10 | 21.2 ± 1.4 | 42 | 894 ± 200 | CC(C)(C)c1nc(N2CCN(CCCCNC(=O)N3CCC(c4ccc(Cl)cc4)CC3)CC2)cc(C(F)(F)F)n1 [Compound 16, N-(4-(4-(2-(tert-Butyl)-6-(trifluoromethyl)pyrimidin-4-yl)piperazin-1-yl)butyl)-4-(4-chlorophenyl)piperidine-1-carboxamide]
11 | 70.6 ± 14.8 | 11 | 789 ± 192 | Cc1ccccc1N1CCN(C(=O)NCCCCN2CCN(c3cc(C(F)(F)F)nc(C(C)(C)C)n3)CC2)CC1 [Compound 58, N-(4-(4-(2-(tert-Butyl)-6-(trifluoromethyl)pyrimidin-4-yl)piperazin-1-yl)butyl)-4-(o-tolyl)piperazine-1-carboxamide]
12 | 19.3 ± 1.6 | 30 | 582 ± 127 | CC(C)(C)c1nc(N2CCN(CCCCNC(=O)N3CCN(c4cccc(Cl)c4)CC3)CC2)cc(C(F)(F)F)n1 [Compound 15, N-(4-(4-(2-(tert-Butyl)-6-(trifluoromethyl)pyrimidin-4-yl)piperazin-1-yl)butyl)-4-(3-chlorophenyl)piperazine-1-carboxamide]

The remaining lines, values behind:

Row | Compound | Ki [1] [nM] | D2/D3 (D3 selectivity ratio, D2 Ki/D3 Ki) [1] | Ki [2] [nM]
13 | O=C(NCCCCN1CCN(c2ncnc3ccccc23)CC1)c1cn2ccccc2n1 [Compound 127, N-(4-(4-(Quinazolin-4-yl)piperazin-1-yl)butyl)imidazo[1,2-a]pyridine-2-carboxamide] | 253 | 4 | 1130 ± 63.8
14 | CN1CCN(C(=O)NCCCCN2CCN(c3cc(C(F)(F)F)nc(C(C)(C)C)n3)CC2)CC1 [Compound 64, N-(4-(4-(2-(tert-Butyl)-6-(trifluoromethyl)pyrimidin-4-yl)piperazin-1-yl)butyl)-4-methylpiperazine-1-carboxamide] | 9.8 ± 2 | 17 | 167 ± 25.5
15 | Cc1ccc(N2CCN(C(=O)NCCCCN3CCN(c4cc(C(F)(F)F)nc(C(C)(C)C)n4)CC3)CC2)cc1 [Compound 23, N-(4-(4-(2-(tert-Butyl)-6-(trifluoromethyl)pyrimidin-4-yl)piperazin-1-yl)butyl)-4-(p-tolyl)piperazine-1-carboxamide] | 22.8 ± 4.2 | 35 | 802 ± 179
16 | Cc1nnc2n1CCN(C(=O)NCCCCN1CCN(c3cc(C(F)(F)F)nc(C(C)(C)C)n3)CC1)C2 [Compound 87, N-(4-(4-(2-(tert-Butyl)-6-(trifluoromethyl)pyrimidin-4-yl)piperazin-1-yl)butyl)-3-methyl-5,6-dihydro-[1,2,4]triazolo[4,3-a]pyrazine-7(8H)-carboxamide] | 28.3 ± 5.3 | 14 | 382 ± 91
17 | O=C(NCCCCN1CCN(c2ccnc3ccccc23)CC1)c1nc2ccccn2c1Br [Compound 128, 3-Bromo-N-(4-(4-(quinolin-4-yl)piperazin-1-yl)butyl)imidazo[1,2-a]pyridine-2-carboxamide] | 285 ± 77 | 8 | 2330 ± 785
18 | Cc1cc(N2CCN(CCCCNC(=O)C3CCN(c4ccc(C(F)(F)F)cn4)CC3)CC2)nc(C(C)(C)C)n1 [Compound 107, N-(4-(4-(2-(tert-Butyl)-6-methylpyrimidin-4-yl)piperazin-1-yl)butyl)-1-(5-(trifluoromethyl)pyridin-2-yl)piperidine-4-carboxamide] | 30.6 ± 7.4 | 32 | 970 ± 137
19 | CC(C)(C)c1nc(N2CCN(CCCCNC(=O)N3CCN(c4ccnc5cc(Cl)ccc45)CC3)CC2)cc(C(F)(F)F)n1 [Compound 63, N-(4-(4-(2-(tert-Butyl)-6-(trifluoromethyl)pyrimidin-4-yl)piperazin-1-yl)butyl)-4-(7-chloroquinolin-4-yl)piperazine-1-carboxamide] | 19.2 ± 3.6 | 19 | 359 ± 45.8
20 | CC(C)(C)c1nc(N2CCN(CCCCNC(=O)c3cn4c(CO)cccc4n3)CC2)cc(C(F)(F)F)n1 [Compound 119, N-(4-(4-(2-(tert-Butyl)-6-(trifluoromethyl)pyrimidin-4-yl)piperazin-1-yl)butyl)-5-(hydroxymethyl)imidazo[1,2-a]pyridine-2-carboxamide] | 45.4 ± 11.3 | – | 934 ± 222
21 | CC(C)(C)c1cc(N2CCN(CCCCNC(=O)N3CCN(c4ccccc4)CC3)CC2)nc(C(C)(C)C)n1 [Compound 10, N-(4-(4-(2,6-Di-tert-butylpyrimidin-4-yl)piperazin-1-yl)butyl)-4-phenylpiperazine-1-carboxamide] | 15.1 ± 4.2 | 22 | 337 ± 67.8
22 | COc1ccc(N2CCN(C(=O)NCCCCN3CCN(c4cc(C(F)(F)F)nc(C(C)(C)C)n4)CC3)CC2)cc1 [Compound 21, N-(4-(4-(2-(tert-Butyl)-6-(trifluoromethyl)pyrimidin-4-yl)piperazin-1-yl)butyl)-4-(4-methoxyphenyl)piperazine-1-carboxamide] | 11.6 ± 0.9 | 48 | 557 ± 79.5
23 | CC(C)(C)c1nc(N2CCN(CCCCNC(=O)N3CCc4[nH]c5ccc(Cl)cc5c4C3)CC2)cc(C(F)(F)F)n1 [Compound 91, N-(4-(4-(2-(tert-Butyl)-6-(trifluoromethyl)pyrimidin-4-yl)piperazin-1-yl)butyl)-8-chloro-3,4-dihydro-1H-pyrido[4,3-b]indole-2(5H)-carboxamide] | 200 ± 47.6 | 6 | 1210 ± 211
24 | CC(C)(C)c1nc(N2CCN(CCCCNC(=O)N3CCN(c4cc(C#N)cc(C(F)(F)F)c4)CC3)CC2)cc(C(F)(F)F)n1 [Compound 61, N-(4-(4-(2-(tert-Butyl)-6-(trifluoromethyl)pyrimidin-4-yl)piperazin-1-yl)butyl)-4-(3-cyano-5-(trifluoromethyl)phenyl)piperazine-1-carboxamide] | 48 ± 10.8 | 19 | 896 ± 193
25 | CC(C)(C)c1nc(N2CCN(CCCCNC(=O)N3CCc4[nH]c5ccc(C(F)(F)F)cc5c4C3)CC2)cc(C(F)(F)F)n1 [Compound 93, N-(4-(4-(2-(tert-Butyl)-6-(trifluoromethyl)pyrimidin-4-yl)piperazin-1-yl)butyl)-8-(trifluoromethyl)-3,4-dihydro-1H-pyrido[4,3-b]indole-2(5H)-carboxamide] | 84.8 ± 21.3 | 7 | 560 ± 53
